Experimental data published in the supplement of paper PMC10307832.

Experiments:
Test in all cases: relative viability (nuclei count vs DMSO), 5 days (fraction); higher = more cells survive
[1] = compound: C1/C(=C\C2=CC=CS2)/C(=O)/C(=C/C3=CC=CS3)/C1 + Cc1nc(Nc2ncc(C(=O)Nc3c(C)cccc3Cl)s2)cc(N2CCN(CCO)CC2)n1 [Dasatinib] (partner 0.075 µM)
Summary of the method: (§1)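 Medians of duplicate plates are given as relative viability. That measure is the nuclei count in treated wells divided by the count in vehicle wells. Counts were taken on 4× images of lung cancer cell lines in 1536-well plates, 5 days after pin-tool dosing the day after seeding with one drug alone or a fixed anchor-drug dose plus five library-drug doses (not always all listed) in √10 steps.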

[2] = compound: C1=CC(=CC=C1C2=CC(=C(S2)NC(=O)N)C(=O)N)F [TPCA-1] + NC(=O)Nc1cc(-c2cccc(F)c2)sc1C(=O)N[C@H]1CCCNC1 [AZD7762] (partner 0.2 µM)
Summary of the method: as §1

[3] = compound: C1/C(=C\C2=CC=CS2)/C(=O)/C(=C/C3=CC=CS3)/C1 + CC(=O)c1c(C)c2cnc(Nc3ccc(N4CCNCC4)cn3)nc2n(C2CCCC2)c1=O [Palbociclib] (partner 0.5 µM)
Summary of the method: as §1

[4] = compound: C1=CC(=CC=C1C2=CC(=C(S2)NC(=O)N)C(=O)N)F [TPCA-1] + COc1cccc2cc(-c3nc([C@H]4CC[C@H](C(=O)O)CC4)n4ncnc(N)c34)[nH]c12 [OSI-027] (partner 0.5 µM)
Summary of the method: as §1

Cell Line	relative viability ([1]; first compound 0.2 µM)	relative viability ([1]; first compound 0.6325 µM)	relative viability ([1]; first compound 2 µM)	relative viability ([1]; first compound 6.325 µM)	relative viability ([1]; first compound 20 µM)	relative viability ([2]; first compound 0.04 µM)	relative viability ([2]; first compound 0.1265 µM)	relative viability ([2]; first compound 0.4 µM)	relative viability ([2]; first compound 1.265 µM)	relative viability ([2]; first compound 4 µM)	relative viability ([3]; first compound 0.2 µM)	relative viability ([3]; first compound 0.6325 µM)	relative viability ([3]; first compound 2 µM)	relative viability ([3]; first compound 6.325 µM)	relative viability ([3]; first compound 20 µM)	relative viability ([4]; first compound 0.04 µM)	relative viability ([4]; first compound 0.1265 µM)	relative viability ([4]; first compound 0.4 µM)	relative viability ([4]; first compound 1.265 µM)	relative viability ([4]; first compound 4 µM)
LU99A	0.611	0.539	0.714	0.623	0.554	0.356	0.364	0.412	0.281	0.247	0.402	0.395	0.481	0.368	0.38	0.325	0.297	0.322	0.232	0.258
LXF-289	0.241	0.178	0.251	0.154	0.203	1.1	1.09	1.1	1.07	0.774	0.648	0.615	0.567	0.577	0.56	0.86	0.674	0.763	0.603	0.347
NCI-H23	0.742	0.832	1.07	0.804	0.692	0.338	0.261	0.21	0.235	0.223	0.553	0.557	0.551	0.478	0.462	0.599	0.574	0.514	0.429	0.149
NCI-H322M	0.256	0.244	0.249	0.237	0.247	0.608	0.555	0.538	0.579	0.519	0.517	0.508	0.529	0.431	0.468	0.567	0.534	0.564	0.581	0.382
NCI-H358	0.155	0.178	0.18		0.164	0.467	0.406	0.73	0.501	0.312	0.187	0.135	0.152	0.143	0.125	0.808	0.657	0.816	0.52	0.226
NCI-H441	0.798	0.739	0.573	0.522	0.412	1.21	0.915	1.19	1.04	1	0.242	0.217	0.234	0.197	0.25	0.841	0.443	0.511	0.302	0.201
NCI-H460	0.562	0.526	0.6	0.461	0.484	0.676	0.684	0.738	0.622	0.731	0.201	0.174	0.224	0.244	0.146	0.794	0.642	0.631	0.584	0.137
NCI-H522	0.901	0.854	1.01	0.834	0.919	0.898	0.904	0.857	0.853	0.894	0.855	1.33	1.03	0.735	0.917	0.744	0.721	0.843	0.837	0.643
NCI-H647	0.214	0.145	0.19	0.211	0.16	0.618	0.447	0.629	0.451	0.327	0.441	0.442	0.378	0.398	0.405	0.633	0.573	0.602	0.55	0.245
NCI-H650	0.462	0.416	0.569	0.446	0.444	1.03	0.895	1.1	0.541	0.906	0.431	0.33	0.345	0.322	0.356	0.533	0.498	0.617	0.286	0.374
NCI-H727	0.333	0.49	0.447	0.449	0.387	0.596	0.68	0.497	0.701	0.698	0.632	0.678	0.61		0.669	0.603	0.43	0.664	0.369	0.541
NCI-H838	0.278	0.268	0.274	0.276	0.284	0.972	0.855	0.935	0.801	0.886	0.225	0.212	0.211	0.203	0.194	0.427	0.353	0.391	0.389	0.299
NCI-H1355	0.772	0.701	0.712	0.598	0.682	0.831	0.7	0.756	0.675	0.707	0.381	0.379	0.408	0.34	0.382	0.466	0.365	0.414	0.313	0.234
NCI-H1395	0.422	0.406	0.399	0.406	0.382	0.398	0.378	0.381	0.37	0.444	0.616	0.683	0.612	0.566	0.599	0.745	0.631	0.738	0.585	0.592
NCI-H1437	0.408	0.446	0.561	0.412	0.378	1.19		1.14	1.03	0.906	0.322	0.314	0.282	0.307	0.336	0.888	0.89	0.908	0.921	0.652
NCI-H1651	0.435	0.504	0.417	0.425	0.401	0.486	0.439	0.462	0.431	0.401	0.48	0.554	0.563	0.47	0.527	0.756	0.612	0.648	0.741	0.544
